Results taken from patent publication US12679878B2, “CRF2 receptor agonists and their use in therapy” (SANOFI, priority 2020, dated 2026).
Like-named read-outs stand apart in the source and are kept apart here. Starred links: 1 amine or outer side, 2 acyl side, 3 side chain; linkers in the order of their positions; H or OH if unused. Non-standard residues stand in square brackets, D forms with d. Residues, ends and D or L forms follow the SMILES beside them. Groups on a side chain read outwards from the residue. No end group written: not given here. *: point of attachment. C18 diacid = O=C(O)CCCCCCCCCCCCCCCCC(=O)*; γGlu = O=C(O)[C@H](CCC(=O)[*:2])N[*:1]; AEEA = NCCOCCOCC(=O)O; Aib = CC(C)(N)C(=O)O

Assays:
[1] = Physical stability, Thioflavin T fibrillation assay (Example 14); assay type: physicochemical; details: 3 mg/ml, 37° C. shaking
Procedure, shortened: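 Compounds at 3 mg/ml final in buffer were stressed at 37° C by repeated cycles of 10 s shaking at 960 rpm and 50 s rest. ThT fluorescence was read every 20 minutes in eight replicates, with fluorescence increase and lag time indicating fibrillation tendency.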

human CRF2α receptor = target: T1, human CRF2α receptor (Homo sapiens, UniProt Q13324); assay: cAMP agonism at human CRF2 α receptor in TeloHEAC cells (Example 7); assay type: cell-based; details: cAMP HTRF, TeloHEAC cells stably expressing human CRF2 α
T1 construct: expressed in transfected cells; host or cells: TeloHEAC
T1 sequence (Q13324 1-411): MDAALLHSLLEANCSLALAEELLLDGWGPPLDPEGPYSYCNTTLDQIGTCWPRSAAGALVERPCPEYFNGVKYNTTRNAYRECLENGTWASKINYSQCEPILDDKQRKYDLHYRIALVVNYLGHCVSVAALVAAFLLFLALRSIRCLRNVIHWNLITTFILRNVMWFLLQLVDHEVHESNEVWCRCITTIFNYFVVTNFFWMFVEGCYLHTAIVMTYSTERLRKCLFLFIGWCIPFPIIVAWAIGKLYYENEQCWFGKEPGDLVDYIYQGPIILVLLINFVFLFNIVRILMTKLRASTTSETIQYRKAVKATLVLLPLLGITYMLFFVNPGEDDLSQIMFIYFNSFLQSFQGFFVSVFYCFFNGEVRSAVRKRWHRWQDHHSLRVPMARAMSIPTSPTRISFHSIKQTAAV
Procedure, shortened: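 Percent activation was referenced to 1000 nM UCN2 (100%), and EC50 values taken as concentrations giving half of maximal response. The read-out was a homogeneous time-resolved fluorescence cAMP kit, fluorescence ratio 665/620 nm. Thawed cells (2000/well) saw compound for 30 min at RT in buffer with 2 mM IBMX and 0%/0.1% HSA.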

rat CRF2R α receptor = assay: cAMP agonism at rat CRF2R α receptor in A7R5 rat aortic smooth muscle cells (Example 8); assay type: cell-based; details: cAMP HTRF, A7R5 rat aortic smooth muscle cell line, 0% HSA
Procedure, shortened: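 Thawed cryopreserved A7R5 cells in HBSS/20 mM HEPES (0 or 0.1% HSA) with 2 mM IBMX, 2000 cells/well, were exposed to compound for 30 min at room temperature. cAMP was read by HTRF (665/620 nm ratio) after 1 h with lysis reagents. Activity was normalised to 1000 nM urocortin 2 as 100%, and EC50 was taken as the concentration giving 50% of maximal activation.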

[2] = Solubility in buffer systems by UPLC-UV (Example 13); assay type: physicochemical; details: pH 4.5, Solubility in Buffer B [mg/ml]
Procedure, shortened: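 The supernatant was diluted 1:10 and quantified by UPLC-UV peak area against a reference standard curve, correcting for sequence-based extinction coefficients.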

[3] = Chemical stability, purity loss by UPLC-UV after 28 days at 40° C. vs 5° C., pH 4.5 acetate buffer (Example 12); assay type: physicochemical; details: 28 days 40° C. vs 5° C.; pH 4.5, 20 mM acetate buffer; 300 μM
Experimental: The chemical stability of the compounds was assessed by storing the compounds under various conditions and then determining the loss of purity by UPLC-UV.
Prior to measuring the chemical stability of a batch of test compound, the purity of the compound was determined through UPLC/MS. For stability testing the target concentration was 300 μM pure compound. Therefore, solutions from solid samples were prepared in a pH 4.5, 20 mM acetate buffer system with a concentration of 300 μM compound based on the previously determined % purity:
At the starting point, UPLC-UV was performed by injection of 2 μl of the undiluted sample. Aliquots were then stored for 28 days at temperatures of 5 and 40° C. […] Then 2 μl samples of the undiluted supernatant were analysed with UPLC-UV. The chemical stability was calculated by the equation: [(purity after 28 days at 5° C.)−(purity after 28 days at 40° C.)]/(purity after 28 days at 5° C.)]×100%. The purity was calculated as: [(peak area compound)/(total peak area)]×100%.

[4] = Physical stability, dynamic light scattering assay (Example 15); assay type: physicochemical; details: Buffer D (20 mM phosphate, pH 7.4)
Experimental: The physical stability of the compounds was also assessed using a dynamic light scattering assay.
In the present study, the physical stability of test compounds was assessed by determining the apparent hydrodynamic radius (Rh), the scattering intensity (I) and mass contribution (M) after synthesis (0 weeks) and after storage for 4 weeks at 40° C.
For each solution of test compound, the hydrodynamic radius Rh and the diffusion constant D (related via the Stokes-Einstein equation) were determined as an average over triplicates. Both parameters were determined at different compound concentrations (e.g., Rh1 and D1: 1 mg/ml and Rh5 and D5: 5 mg/ml, Rh10 and D10: 10 mg/mL) in the same buffer system. The difference of these parameters between low and high peptide concentration is a surrogate for the DLS interaction parameter kD. […] In addition, the hydrodynamic radius Rh and the corresponding Scattering Intensity (%) were determined as an average over duplicates. The target concentration was 300 μM. Therefore, solutions from solid samples were prepared in a buffer system with a concentration of 300 μM compound based on the previously determined % purity.
DLS measurements were performed on a DynaPro Plate Reader I (Wyatt Technology, Santa Barbara, CA, US) with an 837 nm laser light source at a scattering angle of 150°. The data were collected and processed with Dynamics V 7.8.1.3 or 7.8.2.18 software provided by Wyatt Technology.
Hydrodynamic radii were determined with non-negatively constrained least squares (NNLS) methods using DYNALS algorithms with regularization fit. […] Samples were tempered over 1 hour at +25° C. and visually inspected before analysis.
Samples were mixed with the aid of a pipet tip. Measurements were performed in 5 replicates. […] The plate was centrifuged for 2 minutes at 600 rcf. After removing the sealing, the samples were measured at +25° C.

[5] = target: T2, endogenous human CRF2 (NCI-H82 cells) (human, UniProt Q13324 20-411); assay: cell-based or functional assay
T2 sequence (looked up): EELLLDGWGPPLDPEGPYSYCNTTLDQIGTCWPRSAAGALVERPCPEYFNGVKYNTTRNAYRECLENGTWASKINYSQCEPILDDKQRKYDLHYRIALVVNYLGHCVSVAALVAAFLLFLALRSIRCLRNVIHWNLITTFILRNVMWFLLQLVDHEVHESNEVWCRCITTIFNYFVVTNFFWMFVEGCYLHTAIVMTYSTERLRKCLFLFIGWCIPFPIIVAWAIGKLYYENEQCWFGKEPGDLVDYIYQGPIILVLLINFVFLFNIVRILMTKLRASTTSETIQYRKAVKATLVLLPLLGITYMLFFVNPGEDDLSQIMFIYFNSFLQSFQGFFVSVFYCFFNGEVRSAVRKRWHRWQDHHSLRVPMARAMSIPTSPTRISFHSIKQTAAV

[6] = Buffer A: 100 mM acetate buffer, pH 4.5
[7] = Buffer B: 100 mM acetate buffer, pH 4.5, 2.7 mg/ml m-cresol

CC[C@H](C)[C@H](N)C(=O)N[C@H](C(=O)N[C@@H](CC(C)C)C(=O)N[C@@H](CO)C(=O)N[C@@H](CC(C)C)C(=O)N[C@@H](CC(=O)O)C(=O)N[C@@H](C(=O)N1CCC[C@H]1C(=O)N[C@H](C(=O)N[C@@H](CCCCN)C(=O)N[C@@H](CC(C)C)C(=O)N[C@@H](CCCCNC(=O)COCCOCCNC(=O)COCCOCCNC(=O)CC[C@H](NC(=O)CCCCCCCCCCCCCCCCC(=O)O)C(=O)O)C(=O)N[C@@H](CCC(N)=O)C(=O)N[C@H](C(=O)N[C@@H](CC(C)C)C(=O)N[C@@H](CC(C)C)C(=O)N[C@@H](CCCCN)C(=O)N[C@@H](CCC(N)=O)C(=O)N[C@@H](C)C(=O)N[C@@H](CCCNC(=N)N)C(=O)N[C@@H](CCC(N)=O)C(=O)N[C@@H](CCCCN)C(=O)NC(C)(C)C(=O)N[C@@H](CCC(N)=O)C(=O)N[C@@H](CCCNC(=N)N)C(=O)N[C@@H](C)C(=O)N[C@@H](CCC(N)=O)C(=O)N[C@@H](C)C(=O)N[C@@H](CCC(=O)O)C(=O)N[C@@H](CCCCN)C(=O)N[C@@H](CC(N)=O)C(=O)N[C@@H](CCCCN)C(=O)N[C@@H](CCCNC(=N)N)C(=O)N[C@H](C(=O)N[C@@H](CC(C)C)C(=O)N[C@@H](CCC(=O)O)C(=O)N[C@@H](CCCNC(=N)N)C(=O)N[C@H](C(N)=O)C(C)C)[C@@H](C)CC)[C@@H](C)CC)[C@@H](C)CC)C(C)C)C(C)C [compound 141] (H-IVLSLD[dV]PIKLK([AEEA-AEEA-γGlu-C18 diacid])QILLKQARQK[Aib]QRAQAEKNKRILERV-NH2)
Increase in FI (fluorescence intensity) [1, 6]: No
Lag time [1, 6]: >45 h
Increase in FI (fluorescence intensity) [1, 7]: No
Lag time [1, 7]: >45 h
EC50 (human CRF2α receptor; 0% HSA, read-out: EC50 [nM], 0% HSA): 0.03 nM
EC50 (human CRF2α receptor; 0.1% HSA, read-out: EC50 [nM], 0.1% HSA): 0.97 nM
EC50 (rat CRF2R α receptor): 0.05 nM
solubility at 1 h [2]: > 8300 µg/mL
Relative purity loss [%] [3]: 2.90%
Apparent Rh [nm] 0 weeks ([4]; 0 weeks): 2.19 ± 0.18 nm
Scattering Intensity (I) [%] 0 weeks ([4]; 0 weeks): 100 ± 1%
Apparent Rh [nm] 4 weeks ([4]; 4 weeks at 40° C.): 2.34 ± 0.22 nm
Scattering Intensity (I) [%] 4 weeks ([4]; 4 weeks at 40° C.): 98 ± 2%

B1: peptide of SEQ ID NO: 143 (peptide)
peptide: FTLSLDVPTKIK([AEEA-AEEA-γGlu-C18 diacid])QILLKQEKQKKQRQKAKTNKQILERV-NH2
modifications: N-terminus assumed
SMILES: CC[C@H](C)[C@H](NC(=O)[C@H](CCC(N)=O)NC(=O)[C@H](CCCCN)NC(=O)[C@H](CC(N)=O)NC(=O)[C@@H](NC(=O)[C@H](CCCCN)NC(=O)[C@H](C)NC(=O)[C@H](CCCCN)NC(=O)[C@H](CCC(N)=O)NC(=O)[C@H](CCCNC(=N)N)NC(=O)[C@H](CCC(N)=O)NC(=O)[C@H](CCCCN)NC(=O)[C@H](CCCCN)NC(=O)[C@H](CCC(N)=O)NC(=O)[C@H](CCCCN)NC(=O)[C@H](CCC(=O)O)NC(=O)[C@H](CCC(N)=O)NC(=O)[C@H](CCCCN)NC(=O)[C@H](CC(C)C)NC(=O)[C@H](CC(C)C)NC(=O)[C@@H](NC(=O)[C@H](CCC(N)=O)NC(=O)[C@H](CCCCNC(=O)COCCOCCNC(=O)COCCOCCNC(=O)CC[C@H](NC(=O)CCCCCCCCCCCCCCCCC(=O)O)C(=O)O)NC(=O)[C@@H](NC(=O)[C@H](CCCCN)NC(=O)[C@@H](NC(=O)[C@@H]1CCCN1C(=O)[C@@H](NC(=O)[C@H](CC(=O)O)NC(=O)[C@H](CC(C)C)NC(=O)[C@H](CO)NC(=O)[C@H](CC(C)C)NC(=O)[C@@H](NC(=O)[C@@H](N)Cc1ccccc1)[C@@H](C)O)C(C)C)[C@@H](C)O)[C@@H](C)CC)[C@@H](C)CC)[C@@H](C)O)C(=O)N[C@@H](CC(C)C)C(=O)N[C@@H](CCC(=O)O)C(=O)N[C@@H](CCCNC(=N)N)C(=O)N[C@H](C(N)=O)C(C)C
EC50 [nM] (cAMP, NCI-H82 cells) [5]: 93 nM
